From ChEMBL document CHEMBL1201862, “PubChem BioAssay data set” (2004)
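Assay format: 96-well plates, 48-hour exposure. GI50 = concentration required for 50% inhibition of growth.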 The source made the active and inactive calls. Cut-off read from the data, not from the text of the source: active = GI50 up to about 1.1 µM and inactive = higher. Where a SMILES comes first, the peptide text is derived from it. The star is where a group is joined. Cbz = O=C(OCc1ccccc1)*; Boc = CC(C)(C)OC(=O)*; OSu = O=C1CCC(=O)N1O*; Bn = c1ccc(C*)cc1

Assays:
Test in all cases: growth of human tumour cells (NCI), 48 h
RPMI-8226 = system: RPMI-8226
M14 = system: M14
SK-MEL-28 = system: SK-MEL-28
ACHN = system: ACHN
PC-3 = system: PC-3
SNB-75 = system: SNB-75
HL-60 = system: HL-60
IGROV-1 = system: IGROV-1
Hs-578T = system: Hs-578T
HOP-62 = system: HOP-62
A498 = system: A498
OVCAR-5 = system: OVCAR-5
HCT-15 = system: HCT-15
SN12C = system: SN12C
A549 = system: A549
HT-29 = system: HT-29
MOLT-4 = system: MOLT-4
COLO 205 = system: COLO 205
EKVX = system: EKVX
SW-620 = system: SW-620
SK-MEL-5 = system: SK-MEL-5
K562 = system: K562
UACC-62 = system: UACC-62
NCI-H226 = system: NCI-H226
MDA-N = system: MDA-N
OVCAR-8 = system: OVCAR-8
786-0 = system: 786-0
U-251 = system: U-251
KM12 = system: KM12
BT-549 = system: BT-549
UO-31 = system: UO-31
HCC 2998 = system: HCC 2998
RXF 393 = system: RXF 393
SK-MEL-2 = system: SK-MEL-2
SR = system: SR
NCI-H460 = system: NCI-H460
Malme-3M = system: Malme-3M
HOP-92 = system: HOP-92
SNB-19 = system: SNB-19
MCF7 = system: MCF7
HCT-116 = system: HCT-116
TK-10 = system: TK-10
NCI-H23 = system: NCI-H23
MDA-MB-231 = system: MDA-MB-231
UACC-257 = system: UACC-257
SF-268 = system: SF-268
CAKI-1 = system: CAKI-1
CCRF-CEM = system: CCRF-CEM
SF-539 = system: SF-539
MDA-MB-435 = system: MDA-MB-435
NCI-H522 = system: NCI-H522
NCI/ADR-RES = system: NCI/ADR-RES
LOX IMVI = system: LOX IMVI
OVCAR-3 = system: OVCAR-3
DU-145 = system: DU-145
OVCAR-4 = system: OVCAR-4
SF-295 = system: SF-295

CC(C)(C)OC(=O)NC(Cc1ccc(OCc2ccccc2)cc1)C(=O)NC(CCCCNC(=O)OCc1ccccc1)C(=O)ON1C(=O)CCC1=O (centres undefined) (Boc-Tyr(Bn)-Lys(Cbz)-OSu; configuration not given here)
GI50 (RPMI-8226): 20 µM (inactive)
GI50 (M14): 19.4 µM (inactive)
GI50 (SK-MEL-28): 15.8 µM (inactive)
GI50 (ACHN): 20.7 µM (inactive)
GI50 (PC-3): 22.1 µM (inactive)
GI50 (SNB-75): 21.8 µM (inactive)
GI50 (HL-60): 22 µM (inactive)
GI50 (IGROV-1): 16.8 µM (inactive)
GI50 (Hs-578T): 20.3 µM (inactive)
GI50 (HOP-62): 19.5 µM (inactive)
GI50 (A498): 48.3 µM (inactive)
GI50 (OVCAR-5): 31.3 µM (inactive)
GI50 (HCT-15): 16.7 µM
GI50 (SN12C): 16.7 µM (inactive)
GI50 (A549): 34.1 µM (inactive)
GI50 (HT-29): 23.5 µM (inactive)
GI50 (MOLT-4): 20 µM (inactive)
GI50 (COLO 205): 27 µM (inactive)
GI50 (EKVX): 42.6 µM (inactive)
GI50 (SW-620): 20.7 µM (inactive)
GI50 (SK-MEL-5): 22.4 µM (inactive)
GI50 (K562): 27 µM (inactive)
GI50 (UACC-62): 18.2 µM (inactive)
GI50 (NCI-H226): 29.2 µM (inactive)
GI50 (MDA-N): 15.7 µM (inactive)
GI50 (OVCAR-8): 20.8 µM (inactive)
GI50 (786-0): 18.9 µM (inactive)
GI50 (U-251): 17 µM (inactive)
GI50 (KM12): 23.9 µM (inactive)
GI50 (BT-549): 21.6 µM (inactive)
GI50 (UO-31): 21.6 µM (inactive)
GI50 (HCC 2998): 16.5 µM (inactive)
GI50 (RXF 393): 16.9 µM (inactive)
GI50 (SK-MEL-2): 17.4 µM (inactive)
GI50 (SR): 25.4 µM (inactive)
GI50 (NCI-H460): 21.7 µM (inactive)
GI50 (Malme-3M): 23.1 µM (inactive)
GI50 (HOP-92): > 10 µM (inactive)
GI50 (SNB-19): 16.7 µM (inactive)
GI50 (MCF7): 19.8 µM (inactive)
GI50 (HCT-116): 19.9 µM (inactive)
GI50 (TK-10): 29.6 µM (inactive)
GI50 (NCI-H23): 17.8 µM (inactive)
GI50 (MDA-MB-231): 22.3 µM (inactive)
GI50 (UACC-257): 34.3 µM (inactive)

Nc1nc(Cl)c(CO)c(NCC2(CO)CC(CCc3ccccc3)C2)n1 (centres undefined)
GI50 (RPMI-8226): 3.5 µM (inactive)
GI50 (SF-268): 43.1 µM (inactive)
GI50 (SK-MEL-28): 20.4 µM (inactive)
GI50 (ACHN): 24.4 µM (inactive)
GI50 (CAKI-1): 37.8 µM (inactive)
GI50 (CCRF-CEM): 16.5 µM (inactive)
GI50 (PC-3): 51.3 µM (inactive)
GI50 (SF-539): 21.9 µM (inactive)
GI50 (SNB-75): 16.1 µM (inactive)
GI50 (HL-60): 3.4 µM (inactive)
GI50 (IGROV-1): > 10 µM (inactive)
GI50 (Hs-578T): > 10 µM (inactive)
GI50 (MDA-MB-435): 11.5 µM (inactive)
GI50 (HOP-62): 25.4 µM (inactive)
GI50 (A498): 22.2 µM (inactive)
GI50 (OVCAR-5): 29.2 µM (inactive)
GI50 (HCT-15): 20.6 µM
GI50 (SN12C): 31.1 µM (inactive)
GI50 (A549): 18.6 µM (inactive)
GI50 (NCI-H522): 15.7 µM (inactive)
GI50 (HT-29): 22.2 µM (inactive)
GI50 (MOLT-4): 2.1 µM (inactive)
GI50 (COLO 205): 14.5 µM (inactive)
GI50 (EKVX): 19.2 µM (inactive)
GI50 (NCI/ADR-RES): 11.5 µM (inactive)
GI50 (SW-620): 19.6 µM (inactive)
GI50 (SK-MEL-5): 17.3 µM (inactive)
GI50 (K562): 1.37 µM (inactive)
GI50 (LOX IMVI): 12.5 µM (inactive)
GI50 (OVCAR-3): 18.8 µM (inactive)
GI50 (NCI-H226): 13.3 µM (inactive)
GI50 (MDA-N): > 100 µM (inactive)
GI50 (OVCAR-8): 12.7 µM (inactive)
GI50 (786-0): 31.8 µM (inactive)
GI50 (U-251): 26.2 µM (inactive)
GI50 (KM12): 0.264 µM (active)
GI50 (BT-549): 15.4 µM (inactive)
GI50 (UO-31): 17.3 µM (inactive)
GI50 (DU-145): 22.6 µM (inactive)
GI50 (HCC 2998): 33.3 µM (inactive)
GI50 (RXF 393): 20.9 µM (inactive)
GI50 (OVCAR-4): 14.4 µM (inactive)
GI50 (SR): 4.82 µM (inactive)
GI50 (NCI-H460): 13.1 µM (inactive)
GI50 (Malme-3M): 14.2 µM (inactive)
GI50 (HOP-92): 24.3 µM (inactive)
GI50 (SNB-19): 61.5 µM (inactive)
GI50 (MCF7): 14.3 µM (inactive)
GI50 (HCT-116): 0.979 µM (active)
GI50 (TK-10): 80.2 µM (inactive)
GI50 (NCI-H23): 0.0951 µM (active)
GI50 (MDA-MB-231): 12.5 µM (inactive)
GI50 (SF-295): 10.6 µM (inactive)
GI50 (UACC-257): 11.4 µM (inactive)

COc1cccc(-c2nc(-c3cnccn3)n(C/C=C/c3ccccc3)n2)c1
GI50 (M14): > 10 µM (inactive)
GI50 (SF-268): > 10 µM (inactive)
GI50 (ACHN): > 10 µM (inactive)
GI50 (CCRF-CEM): > 10 µM (inactive)
GI50 (PC-3): > 10 µM (inactive)
GI50 (SF-539): > 10 µM (inactive)
GI50 (SNB-75): 6.32 µM (inactive)
GI50 (IGROV-1): > 10 µM (inactive)
GI50 (Hs-578T): > 10 µM (inactive)
GI50 (MDA-MB-435): > 10 µM (inactive)
GI50 (OVCAR-5): > 10 µM (inactive)
GI50 (HCT-15): > 10 µM
GI50 (SN12C): > 10 µM (inactive)
GI50 (A549): > 10 µM (inactive)
GI50 (NCI-H522): > 10 µM (inactive)
GI50 (HT-29): > 10 µM (inactive)
GI50 (MOLT-4): > 10 µM (inactive)
GI50 (EKVX): > 10 µM (inactive)
GI50 (NCI/ADR-RES): > 10 µM (inactive)
GI50 (SW-620): > 10 µM (inactive)
GI50 (K562): > 10 µM (inactive)
GI50 (UACC-62): > 10 µM (inactive)
GI50 (LOX IMVI): > 10 µM (inactive)
GI50 (OVCAR-3): > 10 µM (inactive)
GI50 (NCI-H226): > 10 µM (inactive)
GI50 (MDA-N): > 10 µM (inactive)
GI50 (OVCAR-8): > 10 µM (inactive)
GI50 (786-0): > 10 µM (inactive)
GI50 (U-251): > 10 µM (inactive)
GI50 (KM12): > 10 µM (inactive)
GI50 (BT-549): > 10 µM (inactive)
GI50 (UO-31): > 10 µM (inactive)
GI50 (HCC 2998): > 10 µM (inactive)
GI50 (SK-MEL-2): > 10 µM (inactive)
GI50 (OVCAR-4): > 10 µM (inactive)
GI50 (SR): > 10 µM (inactive)
GI50 (NCI-H460): > 10 µM (inactive)
GI50 (Malme-3M): > 10 µM (inactive)
GI50 (HOP-92): 1.86 µM (inactive)
GI50 (SNB-19): > 10 µM (inactive)
GI50 (MCF7): > 10 µM (inactive)
GI50 (TK-10): > 10 µM (inactive)
GI50 (NCI-H23): > 10 µM (inactive)
GI50 (SF-295): > 10 µM (inactive)
GI50 (UACC-257): > 10 µM (inactive)
